Measured values published in US12077503B2, “Substituted cyclic amides and their use as herbicides” (FMC CORPORATION, priority 2015, dated 2024).
Like-named read-outs stand apart in the source and are kept apart here.

Key:
Test in all cases: Test A postemergence
Format in all cases: in vivo
[1] = test system: barnyardgrass (Echinochloa crus-galli); conditions: Echinochloa crus-galli, post-emergence, 240 h; for pest or weed control at 125 g/ha: 125 g ai/ha; for pest or weed control at 500 g/ha: 500 g ai/ha, visual injury, approx. 10 d
Outline: (§1)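 Treatment is preemergence as a directed soil spray after planting, or postemergence at the one- to two-leaf stage, with test chemical in a non-phytotoxic solvent mixture plus surfactant. Plants stay in the greenhouse about 10 d before visual injury scoring on a 0 to 100 scale versus untreated controls.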

[2] = test system: ryegrass, Italian (Italian ryegrass, Lolium multiflorum); conditions: Lolium multiflorum, post-emergence, 240 h; for pest or weed control at 125 g/ha: 125 g ai/ha; for pest or weed control at 500 g/ha: 500 g ai/ha, visual injury, approx. 10 d
Outline: as §1

[3] = test system: ragweed (common ragweed, Ambrosia elatior); conditions: Ambrosia artemisiifolia, post-emergence, 240 h; for pest or weed control at 125 g/ha: 125 g ai/ha; for pest or weed control at 500 g/ha: 500 g ai/ha, visual injury, approx. 10 d
Outline: as §1

[4] = test system: blackgrass (Alopecurus myosuroides); conditions: Alopecurus myosuroides, post-emergence, 240 h; for pest or weed control at 125 g/ha: 125 g ai/ha; for pest or weed control at 500 g/ha: 500 g ai/ha, visual injury, approx. 10 d
Outline: as §1

[5] = test system: wheat (Triticum aestivum); conditions: Triticum aestivum, post-emergence, 240 h; for plant injury at 125 g/ha: 125 g ai/ha; for plant injury at 500 g/ha: 500 g ai/ha, visual injury, approx. 10 d
Outline: as §1

[6] = test system: giant foxtail (Setaria faberii); conditions: Setaria faberi, post-emergence, 240 h; for pest or weed control at 125 g/ha: 125 g ai/ha; for pest or weed control at 500 g/ha: 500 g ai/ha, visual injury, approx. 10 d
Outline: as §1

[7] = postemergence, visual injury after approximately 10 d, 0 to 100 scale (0 no effect, 100 complete control), read-out: Plant response rating, Barnyardgrass
[8] = postemergence, visual injury after approximately 10 d, 0 to 100 scale (0 no effect, 100 complete control), read-out: Plant response rating, Ryegrass, Italian
[9] = postemergence, visual injury after approximately 10 d, 0 to 100 scale (0 no effect, 100 complete control), read-out: Plant response rating, Ragweed
[10] = postemergence, visual injury after approximately 10 d, 0 to 100 scale (0 no effect, 100 complete control), read-out: Plant response rating, Blackgrass
[11] = postemergence, visual injury after approximately 10 d, 0 to 100 scale (0 no effect, 100 complete control), read-out: Plant response rating, Wheat
[12] = postemergence, visual injury after approximately 10 d, 0 to 100 scale (0 no effect, 100 complete control), read-out: Plant response rating, Foxtail, Giant
[13] = postemergence, visual injury rating after approximately 10 d, read-out: Barnyardgrass plant response rating (0 to 100 scale, 0 no effect, 100 complete control)
[14] = postemergence, visual injury rating after approximately 10 d, read-out: Ryegrass, Italian plant response rating (0 to 100 scale, 0 no effect, 100 complete control)
[15] = postemergence, visual injury rating after approximately 10 d, read-out: Ragweed plant response rating (0 to 100 scale, 0 no effect, 100 complete control)
[16] = postemergence, visual injury rating after approximately 10 d, read-out: Blackgrass plant response rating (0 to 100 scale, 0 no effect, 100 complete control)
[17] = postemergence, visual injury rating after approximately 10 d, read-out: Wheat plant response rating (0 to 100 scale, 0 no effect, 100 complete control)
[18] = postemergence, visual injury rating after approximately 10 d, read-out: Foxtail, Giant plant response rating (0 to 100 scale, 0 no effect, 100 complete control)
[19] = Postemergence, visual rating about 10 d after treatment, read-out: Barnyardgrass plant response rating (0 to 100 scale, 0 no effect, 100 complete control)
[20] = Postemergence, 0 to 100 scale (0 no effect, 100 complete control), read-out: Plant response rating, Barnyardgrass
[21] = Postemergence, visual rating about 10 d after treatment, read-out: Ryegrass, Italian plant response rating (0 to 100 scale)
[22] = Postemergence, 0 to 100 scale (0 no effect, 100 complete control), read-out: Plant response rating, Ryegrass, Italian
[23] = Postemergence, visual rating about 10 d after treatment, read-out: Ragweed plant response rating (0 to 100 scale)
[24] = Postemergence, 0 to 100 scale (0 no effect, 100 complete control), read-out: Plant response rating, Ragweed
[25] = Postemergence, visual rating about 10 d after treatment, read-out: Blackgrass plant response rating (0 to 100 scale)
[26] = Postemergence, 0 to 100 scale (0 no effect, 100 complete control), read-out: Plant response rating, Blackgrass
[27] = Postemergence, visual rating about 10 d after treatment, read-out: Wheat plant response rating (0 to 100 scale)
[28] = Postemergence, 0 to 100 scale (0 no effect, 100 complete control), read-out: Plant response rating, Wheat
[29] = Postemergence, visual rating about 10 d after treatment, read-out: Foxtail, Giant plant response rating (0 to 100 scale)
[30] = Postemergence, 0 to 100 scale (0 no effect, 100 complete control), read-out: Plant response rating, Foxtail, Giant

SMILES | pest or weed control at 125 g/ha [1, 7] [%] | pest or weed control at 125 g/ha [2, 8] [%] | pest or weed control at 125 g/ha [3, 9] [%] | pest or weed control at 125 g/ha [4, 10] [%] | plant injury at 125 g/ha [5, 11] [%] | pest or weed control at 125 g/ha [6, 12] [%] | pest or weed control at 125 g/ha [1, 13] [%] | pest or weed control at 125 g/ha [2, 14] [%] | pest or weed control at 125 g/ha [3, 15] [%] | pest or weed control at 125 g/ha [4, 16] [%] | plant injury at 125 g/ha [5, 17] [%] | pest or weed control at 125 g/ha [6, 18] [%] | pest or weed control at 125 g/ha [1, 19] [%] | pest or weed control at 500 g/ha [1, 20] [%] | pest or weed control at 125 g/ha [2, 21] [%] | pest or weed control at 500 g/ha [2, 22] [%] | pest or weed control at 125 g/ha [3, 23] [%] | pest or weed control at 500 g/ha [3, 24] [%] | pest or weed control at 125 g/ha [4, 25] [%] | pest or weed control at 500 g/ha [4, 26] [%] | further results
Cc1ccc(NC(=O)[C@H]2C(=O)N(C)C[C@@H]2c2cc(F)cc(F)c2)c(F)c1 [Compound 760] | 80 | 0 | 0 | 0 | 0 | 80 | – | – | – | – | – | – | – | – | – | – | – | – | – | – | –
CN1C[C@H](c2cccc(S(C)(=O)=O)c2)[C@@H](C(=O)Nc2cccc(F)c2F)C1=O (racemic) [Compound 777] | 70 | 0 | 0 | 0 | 30 | 30 | – | – | – | – | – | – | – | – | – | – | – | – | – | – | –
Cc1cc(F)cc([C@H]2CN(C)C(=O)[C@@H]2C(=O)Nc2cccc(F)c2C)c1 [Compound 802] | – | – | – | – | – | – | 80 | 40 | 30 | 60 | 30 | 90 | – | – | – | – | – | – | – | – | pest or weed control at 31 g/ha ([1]; Postemergence, 31 g ai/ha, visual injury after approx. 10 d, 0 to 100 scale, 0 no effect, 100 complete control, read-out: Plant response rating, Barnyardgrass): 80%; pest or weed control at 31 g/ha ([2]; Postemergence, 31 g ai/ha, visual injury after approx. 10 d, 0 to 100 scale, 0 no effect, 100 complete control, read-out: Plant response rating, Ryegrass, Italian): 0%; pest or weed control at 31 g/ha ([3]; Postemergence, 31 g ai/ha, visual injury after approx. 10 d, 0 to 100 scale, 0 no effect, 100 complete control, read-out: Plant response rating, Ragweed): 0%; pest or weed control at 31 g/ha ([4]; Postemergence, 31 g ai/ha, visual injury after approx. 10 d, 0 to 100 scale, 0 no effect, 100 complete control, read-out: Plant response rating, Blackgrass): 20%; plant injury at 31 g/ha ([5]; Postemergence, 31 g ai/ha, visual injury after approx. 10 d, 0 to 100 scale, 0 no effect, 100 complete control, read-out: Plant response rating, Wheat): 0%; pest or weed control at 31 g/ha ([6]; Postemergence, 31 g ai/ha, visual injury after approx. 10 d, 0 to 100 scale, 0 no effect, 100 complete control, read-out: Plant response rating, Foxtail, Giant): 70%
CN1C[C@H](c2ccc(C(F)(F)F)cc2)[C@@H](C(=O)Nc2cccc(F)c2C#N)C1=O [Compound 1380] | – | – | – | – | – | – | – | – | – | – | – | – | 60 | 80 | 50 | 60 | 40 | 50 | 40 | 60 | plant injury at 125 g/ha [5, 27]: 40%; plant injury at 500 g/ha [5, 28]: 40%; pest or weed control at 125 g/ha [6, 29]: 90%; pest or weed control at 500 g/ha [6, 30]: 90%
CO[C@]1(C(=O)Nc2cccc(F)c2F)C(=O)N(C)C[C@@H]1c1ccc(C(F)(F)F)cc1 (racemic) [Compound 1334] | – | – | – | – | – | – | – | – | – | – | – | – | 0 | 50 | 0 | 20 | 0 | 20 | 0 | 0 | plant injury at 125 g/ha [5, 27]: 0%; plant injury at 500 g/ha [5, 28]: 0%; pest or weed control at 125 g/ha [6, 29]: 0%; pest or weed control at 500 g/ha [6, 30]: 50%
CN1C[C@H](c2cccc(C3CC3)c2)[C@@H](C(=O)Nc2ccccc2F)C1=O [Compound 815] | – | – | – | – | – | – | 100 | 60 | 0 | 50 | 30 | 90 | – | – | – | – | – | – | – | – | –
